Reference: US20260207569A1, “LPA1 ANTAGONISTS FOR TREATING INTERSTITIAL LUNG DISEASE” (Bristol-Myers Squibb Company, priority 2022, published 2026)

Legend:
[1] = Phase 2 PPF cohort safety: adverse events, prespecified asymptomatic or symptomatic blood pressure reduction criteria, dose reductions; type: in vivo, human; conditions: for Patients with asymptomatic blood pressure reduction, (%) / Patients with asymptomatic blood pressure reduction, no. / Patients with symptomatic blood pressure reduction, (%) / Patients with symptomatic blood pressure reduction, no.: prespecified criteria
Method: A total of 123 participants with PPF were randomized. Participants (age ≥21 years) were randomized (1:1:1) to receive 30 mg or 60 mg Compound A or PBO twice daily for 26 weeks. […] Immunosuppressive medications (mycophenolate mofetil, mycophenolic acid, azathioprine and/or tacrolimus) were permitted only if dosing is stable for ≥6 months prior to screening. If receiving antifibrotic agents pirfenidone or nintedanib, patients had to receive a stable dosage for ≥3 months prior to screening and during the screening period; if not receiving pirfenidone or nintedanib, patients had to be naive to both drugs or not have received either 4 weeks prior to Day 1. A total of 47 (38.2%) subjects were receiving antifibrotic treatment (with or without immunosuppression therapy). Of those subjects, 34 were being treated with nintedanib and 13 with pirfenidone. Participants were stratified by usual interstitial pneumonia (UIP) pattern (presence versus absence) and background therapy (antifibrotics +/−ILD-targeted immunosuppression versus ILD-targeted immunosuppression alone versus none). UIP pattern was present in 52% of subjects and unclassifiable ILD was he most common disease categorization.
Patient is experiencing any of the following, confirmed by retest within 15 minutes: • Seated systolic blood pressure <85 mmHg • Seated diastolic blood pressure <55 mmHg • Orthostatic hypotension
Patient is experiencing symptoms that, in the investigator's opinion, could be associated with a reduction in blood pressure and is also experiencing at least one of the following, confirmed by retest within 15 minutes: • Seated systolic blood pressure <100 mmHg or seated diastolic blood pressure <60 mmHg • Decrease of seated systolic blood pressure of ≥20 mmHg from the previous visit or decrease of seated diastolic blood pressure of ≥10 mmHg from the previous visit • Orthostatic hypotension • Orthostatic tachycardia

[2] = Phase 1 Part C MAD, blood pressure, healthy Japanese participants; type: in vivo, human
Method: The study was performed in 3 parts in 112 healthy male and female participants, including 24 Japanese participants. Female participants were to be not of childbearing potential. The present study was designed to evaluate the safety and tolerability, PK, and exploratory PD of an oral suspension of Compound A. Parts A and B (Cohort B1 only) enrolled healthy participants and was conducted at a site in The Netherlands and Part B (Cohort B2 to B5) enrolled healthy non-Japanese participants and was conducted at a site in the United Kingdom (UK). Part C enrolled healthy Japanese participants and was conducted at the same site in the UK.
Part C was a MAD study in 3 sequential dose escalation cohorts (30 mg BID, 60 mg BID, and 90 mg BID) of 8 healthy Japanese participants (6 active+2 placebo) each. Eligible participants in Cohorts C1 to C3 received study drug (Compound A or placebo) administered orally for 14 days.
Physical examinations, vital sign measurements (including orthostasis testing in Cohort A6, Cohort B3 to B5, and C1 to C3 at selected time points), 12-lead electrocardiogram (ECG), and clinical laboratory evaluations were performed at selected times throughout the study. In addition, Holter monitoring was performed for the first 24 hours post dose on Day 1 in Part A (not in FE/pH cohort), and also for the first 24 hours post dose on Day 1 and Day 14 in Parts B and C. Participants were closely monitored for adverse events (AEs). Blood samples were collected for up to 14 days (follow-up visit) after (last) study drug administration for PK analysis. In addition, blood and urine were collected for exploratory biomarker assessments and for biobanking of samples for potential analyses. Urine was collected for potential PK analysis for up to 96 hours after a single dose of Compound A or placebo was administered in the SAD part, and for up to 24 hours after the first (morning) dose of study drug on Day 1 and for up to 24 hours after the last (morning) dose of study drug on Day 14 in the MAD parts.

[3] = PPF cohort, 30-mg Compound A (n = 40)
[4] = PPF cohort, 60-mg Compound A (n = 42)

CCCN(C)C(=O)OCc1c(-c2ccc(O[C@H]3CCC[C@H](C(=O)O)C3)c(C)n2)nnn1C [Compound A, (1S,3S)-3-((2-methyl-6-(1-methyl-5-(((methyl(propyl)carbamoyl)-oxy)methyl)-1H-1,2,3-triazol-4-yl)pyridin-3-yl)oxy)cyclohexane-1-carboxylic acid]
Day-1 blood pressure reduction ([1]; PPF cohort): dose dependent day-1 blood pressure reduction
Marked laboratory abnormalities ([1]; PPF cohort): No notable imbalances in marked laboratory abnormalities among treatment groups
Prespecified blood pressure reduction criteria across arms ([1]; PPF cohort): increased in a dose-dependent manner
Patients with dose reductions, (%) [1, 3]: (15.0) %
Patients with dose reductions, no. [1, 3]: 6 no.
Patients with orthostatic hypotension (within asymptomatic blood pressure reduction), (%) [1, 3]: (15.0) %
Patients with orthostatic hypotension (within asymptomatic blood pressure reduction), no. [1, 3]: 6 no.
Patients with orthostatic hypotension (within symptomatic blood pressure reduction), (%) [1, 3]: (2.5) %
Patients with orthostatic hypotension (within symptomatic blood pressure reduction), no. [1, 3]: 1 no.
Patients with asymptomatic blood pressure reduction, (%) [1, 3]: (22.5) %
Patients with asymptomatic blood pressure reduction, no. [1, 3]: 9 no.
Patients with symptomatic blood pressure reduction, (%) [1, 3]: (5.0) %
Patients with symptomatic blood pressure reduction, no. [1, 3]: 2 no.
Patients with dose reductions, (%) [1, 4]: (11.9) %
Patients with dose reductions, no. [1, 4]: 5 no.
Patients with orthostatic hypotension (within asymptomatic blood pressure reduction), (%) [1, 4]: (26.2) %
Patients with orthostatic hypotension (within asymptomatic blood pressure reduction), no. [1, 4]: 11 no.
Patients with orthostatic hypotension (within symptomatic blood pressure reduction), (%) [1, 4]: (9.5) %
Patients with orthostatic hypotension (within symptomatic blood pressure reduction), no. [1, 4]: 4 no.
Patients with asymptomatic blood pressure reduction, (%) [1, 4]: (31.0) %
Patients with asymptomatic blood pressure reduction, no. [1, 4]: 13 no.
Patients with symptomatic blood pressure reduction, (%) [1, 4]: (14.3) %
Patients with symptomatic blood pressure reduction, no. [1, 4]: 6 no.
Low BP thresholds (“events”) ([1]; PPF, 30 mg BID): 30%
COVID-19, % ([1]; PPF, 30 mg BID (n = 40)): (15.0) %
COVID-19, no. ([1]; PPF, 30 mg BID (n = 40)): 6
Cough, % ([1]; PPF, 30 mg BID (n = 40)): (7.5) %
Cough, no. ([1]; PPF, 30 mg BID (n = 40)): 3
Deaths due to TEAEs, no. ([1]; PPF, 30 mg BID (n = 40)): 0
Diarrhea, % ([1]; PPF, 30 mg BID (n = 40)): (15.0) %
Diarrhea, no. ([1]; PPF, 30 mg BID (n = 40)): 6
Discontinuations due to TEAEs, % ([1]; PPF, 30 mg BID (n = 40)): (2.5) %
Discontinuations due to TEAEs, no. ([1]; PPF, 30 mg BID (n = 40)): 1
Dizziness, no. ([1]; PPF, 30 mg BID (n = 40)): 0
Dyspnea, % ([1]; PPF, 30 mg BID (n = 40)): (5.0) %
Dyspnea, no. ([1]; PPF, 30 mg BID (n = 40)): 2
Hypertension, no. ([1]; PPF, 30 mg BID (n = 40)): 0
Hypotension, % ([1]; PPF, 30 mg BID (n = 40)): (10.0) %
Hypotension, no. ([1]; PPF, 30 mg BID (n = 40)): 4
Nausea, % ([1]; PPF, 30 mg BID (n = 40)): (10.0) %
Nausea, no. ([1]; PPF, 30 mg BID (n = 40)): 4
Orthostatic hypotension, % ([1]; PPF, 30 mg BID (n = 40)): (5.0) %
Orthostatic hypotension, no. ([1]; PPF, 30 mg BID (n = 40)): 2
Patients with ≥1 TEAE related to study drug, no. ([1]; PPF, 30 mg BID (n = 40)): 7
Patients with ≥1 TEAE, no. ([1]; PPF, 30 mg BID (n = 40)): 33
Patients with ≥1 TESAE, no. ([1]; PPF, 30 mg BID (n = 40)): 4
Rash, % ([1]; PPF, 30 mg BID (n = 40)): (7.5) %
Rash, no. ([1]; PPF, 30 mg BID (n = 40)): 3
Vomiting, % ([1]; PPF, 30 mg BID (n = 40)): (7.5) %
Vomiting, no. ([1]; PPF, 30 mg BID (n = 40)): 3
Orthostatic hypotension (asymptomatic and symptomatic) vs other groups ([1]; PPF, 60 mg BID): higher in the 60 mg group than for other groups
COVID-19, % ([1]; PPF, 60 mg BID (n = 42)): (14.3) %
COVID-19, no. ([1]; PPF, 60 mg BID (n = 42)): 6
Cough, % ([1]; PPF, 60 mg BID (n = 42)): (11.9) %
Cough, no. ([1]; PPF, 60 mg BID (n = 42)): 5
Deaths due to TEAEs, no. ([1]; PPF, 60 mg BID (n = 42)): 0
Diarrhea, % ([1]; PPF, 60 mg BID (n = 42)): (7.1) %
Diarrhea, no. ([1]; PPF, 60 mg BID (n = 42)): 3
Discontinuations due to TEAEs, no. ([1]; PPF, 60 mg BID (n = 42)): 0
Dizziness, % ([1]; PPF, 60 mg BID (n = 42)): (9.5) %
Dizziness, no. ([1]; PPF, 60 mg BID (n = 42)): 4
Dyspnea, no. ([1]; PPF, 60 mg BID (n = 42)): 0
Hypertension, % ([1]; PPF, 60 mg BID (n = 42)): (2.4) %
Hypertension, no. ([1]; PPF, 60 mg BID (n = 42)): 1
Hypotension, % ([1]; PPF, 60 mg BID (n = 42)): (7.1) %
Hypotension, no. ([1]; PPF, 60 mg BID (n = 42)): 3
Nausea, % ([1]; PPF, 60 mg BID (n = 42)): (2.4) %
Nausea, no. ([1]; PPF, 60 mg BID (n = 42)): 1
Orthostatic hypotension, % ([1]; PPF, 60 mg BID (n = 42)): (9.5) %
Orthostatic hypotension, no. ([1]; PPF, 60 mg BID (n = 42)): 4
Patients with ≥1 TEAE related to study drug, no. ([1]; PPF, 60 mg BID (n = 42)): 11
Patients with ≥1 TEAE, no. ([1]; PPF, 60 mg BID (n = 42)): 28
Patients with ≥1 TESAE, no. ([1]; PPF, 60 mg BID (n = 42)): 5
Rash, no. ([1]; PPF, 60 mg BID (n = 42)): 0
Vomiting, no. ([1]; PPF, 60 mg BID (n = 42)): 0
Adverse event profile other than low blood pressure ([1]; PPF, 60 mg BID versus placebo): generally in favor of the 60 mg group versus placebo
Maximum of mean (±SD) reduction in SBP from baseline ([2]; Japanese MAD 30 mg BID (C1)): 15.0 ± 6.84 mmHg
Time of maximum mean SBP reduction ([2]; Japanese MAD 30 mg BID (C1)): 1-4 Day-h
Time of maximum mean DBP reduction ([2]; Japanese MAD 90 mg BID (C2)): 1-6 Day-h
Time of maximum mean SBP reduction ([2]; Japanese MAD 90 mg BID (C2)): 1-6 Day-h
Reductions in mean BP ([2]; Japanese MAD cohorts): no clear Compound A dose-dependent BP reduction trend
